# Source: PMC6691788, “Design and synthesis of phthalazine-based compounds as potent anticancer agents with potential antiangiogenic activity via VEGFR-2 inhibition” (Journal of Enzyme Inhibition and Medicinal Chemistry, 2019)
# Experiments:
# Assay in all cases: NCI 60 cell panel SRB screen
# ACHN = format: cell-based; conditions: Homo sapiens
# BT-549 = format: cell-based; conditions: Homo sapiens
# T-47D = format: cell-based; conditions: Homo sapiens, T47D
# MDA-MB 231/ATCC = format: cell-based; conditions: Homo sapiens
# KM12 = format: cell-based; conditions: Homo sapiens
# SR = format: cell-based; conditions: Homo sapiens
# NCI-H226 = format: cell-based; conditions: Homo sapiens
# HCT-116 = format: cell-based; conditions: Homo sapiens
# K-562 = format: cell-based; conditions: Homo sapiens, K562
# HOP-62 = format: cell-based; conditions: Homo sapiens
# TK-10 = format: cell-based, human
# U251 = format: cell-based; conditions: Homo sapiens, U-251
# HCT-15 = format: cell-based; conditions: Homo sapiens
# MCF7 = format: cell-based; conditions: Homo sapiens
# HS 578T = format: cell-based; conditions: Homo sapiens
# SN12C = format: cell-based; conditions: Homo sapiens, 5 log dose
# [1] = 5 log dose, 48 h, read-out: LC50 (the source's name)
# [2] = single dose 10 μM, read-out: percent cell growth promotion
structure (smiles),measurement,setting,value
"O=C(Nc1ccccc1)Nc1ccc(Oc2nnc(Cl)c3ccccc23)cc1 [Compound 13a, 1–(4-(4-Chlorophthalazin-1-yloxy)phenyl)-3-phenylurea]",GI50,ACHN; 5 log dose,3.47 µM
same,IC (TGI),ACHN; 5 log dose,18.7 µM
same,CC50,ACHN; [1],> 25 µM
same,activity at 10 µM,ACHN; [2],33.9%
same,GI50,BT-549; BT-549,3.06 µM
same,IC (TGI),"BT-549; BT-549, read-out: TGI",10.8 µM
same,activity at 10 µM,"BT-549; BT-549, read-out: percent cell growth promotion",47.7%
same,CC50,"BT-549; BT-549, 5 log dose, 48 h, read-out: LC50 (the source's name)",> 25 µM
same,GI50,T-47D,0.63 µM
same,IC (TGI),T-47D; read-out: TGI,10.8 µM
same,activity at 10 µM,T-47D; read-out: percent cell growth promotion,-18%
same,CC50,"T-47D; T-47D, 5 log dose, 48 h, read-out: LC50 (the source's name)",> 25 µM
same,GI50,MDA-MB 231/ATCC; MDA-MB-231,4.76 µM
same,IC (TGI),"MDA-MB 231/ATCC; MDA-MB-231, read-out: TGI",12.3 µM
same,activity at 10 µM,"MDA-MB 231/ATCC; MDA-MB-231, read-out: percent cell growth promotion",32.1%
same,CC50,"MDA-MB 231/ATCC; MDA-MB-231, MDA-MDA 231/ATCC, 5 log dose, 48 h, read-out: LC50 (the source's name)",> 25 µM
same,GI50,"KM12; KM12, 5 log dose",5.51 µM
same,IC (TGI),"KM12; KM12, 5 log dose",> 25 µM
same,CC50,"KM12; KM12, 5 log dose, 48 h, read-out: LC50 (the source's name)",> 25 µM
same,activity at 10 µM,"KM12; KM12, single dose 10 μM, read-out: percent cell growth promotion",43.6%
same,GI50,SR; 5 log dose,1.93 µM
same,IC (TGI),SR; 5 log dose,8.26 µM
same,CC50,SR; [1],> 25 µM
same,activity at 10 µM,SR; [2],18%
same,GI50,"NCI-H226; NCI-H226, 5 log dose",1.95 µM
same,IC (TGI),"NCI-H226; NCI-H226, 5 log dose",9.25 µM
same,CC50,"NCI-H226; NCI-H226, 5 log dose, 48 h, read-out: LC50 (the source's name)",> 25 µM
same,activity at 10 µM,"NCI-H226; NCI-H226, single dose 10 μM, read-out: percent cell growth promotion",8.66%
same,GI50,"HCT-116; HCT-116, 5 log dose",3.06 µM
same,IC (TGI),"HCT-116; HCT-116, 5 log dose",9.77 µM
same,LC50 (lethal concentration 50%),"HCT-116; HCT-116, 5 log dose, 48 h",> 25 µM
same,activity at 10 µM,"HCT-116; HCT-116, single dose 10 μM, read-out: percent cell growth promotion",10.6%
same,GI50,"K-562; K-562, 5 log dose",6.21 µM
same,IC (TGI),"K-562; K-562, 5 log dose",> 25 µM
same,CC50,"K-562; K-562, 5 log dose, 48 h, read-out: LC50 (the source's name)",> 25 µM
same,activity at 10 µM,"K-562; K-562, single dose 10 μM, read-out: percent cell growth promotion",51.6%
same,GI50,"HOP-62; HOP-62, 5 log dose",2.52 µM
same,IC (TGI),"HOP-62; HOP-62, 5 log dose",65.4 µM
same,CC50,"HOP-62; HOP-62, 5 log dose, 48 h, read-out: LC50 (the source's name)",17 µM
same,activity at 10 µM,"HOP-62; HOP-62, single dose 10 μM, read-out: percent cell growth promotion",-43.4%
same,GI50,"TK-10; Homo sapiens, TK-10, 5 log dose",6.08 µM
same,CC50,"TK-10; Homo sapiens, TK-10, 5 log dose, 48 h, read-out: LC50 (the source's name)",> 25 µM
same,activity at 10 µM,"TK-10; Homo sapiens, TK-10, single dose 10 μM, read-out: percent cell growth promotion",25.3%
same,TGI,"TK-10; TK-10, 5 log dose",14.9 µM
same,GI50,"U251; U251, 5 log dose",2.14 µM
same,IC (TGI),"U251; U251, 5 log dose",5.2 µM
same,CC50,"U251; U251, 5 log dose, 48 h, read-out: LC50 (the source's name)",11.4 µM
same,activity at 10 µM,"U251; U251, single dose 10 μM, read-out: percent cell growth promotion",4.84%
same,GI50,"HCT-15; HCT-15, 5 log dose",3.54 µM
same,IC (TGI),"HCT-15; HCT-15, 5 log dose",12.9 µM
same,CC50,"HCT-15; HCT-15, 5 log dose, 48 h, read-out: LC50 (the source's name)",> 25 µM
same,activity at 10 µM,"HCT-15; HCT-15, single dose 10 μM, read-out: percent cell growth promotion",36.4%
same,GI50,MCF7; MCF7,1.32 µM
same,IC (TGI),"MCF7; MCF7, read-out: TGI",6.32 µM
same,activity at 10 µM,"MCF7; MCF7, read-out: percent cell growth promotion",-4.15%
same,CC50,"MCF7; MCF7, 5 log dose, 48 h, read-out: LC50 (the source's name)",20.6 µM
same,GI50,HS 578T; Hs-578T,2.12 µM
same,IC (TGI),"HS 578T; Hs-578T, read-out: TGI",10.4 µM
same,activity at 10 µM,"HS 578T; Hs-578T, read-out: percent cell growth promotion",1.19%
same,CC50,"HS 578T; HS 578T, 5 log dose, 48 h, read-out: LC50 (the source's name)",> 25 µM
same,GI50,SN12C,6.72 µM
same,IC (TGI),SN12C,> 25 µM
same,CC50,"SN12C; 48 h, read-out: LC50 (the source's name)",> 25 µM
